Drawing on ChEMBL document CHEMBL1152024, “Synthesis and bronchospasmolytic properties of some pyridazinone derivatives” (1993), this text covers Increase and pD2 for ten compounds.

One test is filed under the species Cavia porcellus. As to the kind of experiment: Tested in vitro for its effect on tracheal relaxation in guinea pig trachea, activity expressed as percentage increase in the velocity of the flux of perfusion at concentration 10 ug/mL. The test is classed as functional.
As to `Cn1c(=O)c2nc[nH]c2n(C)c1=O.O` [THEOPHYLLINE], the Increase amounted to 55%.

Another test is filed under the species Cavia porcellus. Kind of test: Tested in vitro for its effect on tracheal relaxation in guinea pig trachea, activity expressed as percentage increase in the velocity of the flux of perfusion at concentration 30 ug/mL. Format: functional.
In the case of `Nc1c(Cl)cc(C(O)CN2CCN(c3ccc(O)nn3)CC2)cc1Cl` (configuration not stated), the Increase stood at 54%.

`CC(=O)Nc1ccc(C(O)CN2CCN(c3cnnc(O)c3Cl)CC2)cc1Cl` (configuration not stated) came in with an Increase of 4%.

`O=c1ccc(Cl)nn1CCN1CCN(CC(O)c2ccc(Cl)c(Cl)c2)CC1` (configuration not stated) had an Increase of 46%.

`Nc1c(Cl)cc(C(O)CN2CCN(CCn3nc(Cl)ccc3=O)CC2)cc1Cl` (configuration not stated): the Increase stood at 22%.

In turn, `CC(=O)Nc1ccc(C(O)CN2CCN(CCn3nc(Cl)ccc3=O)CC2)cc1Cl` (configuration not stated) displayed an Increase of 4%.

With `Oc1ccc(N2CCN(CC(O)c3ccc(Cl)c(Cl)c3)CC2)nn1` (configuration not stated), the Increase came out at 87%.

`Oc1nncc(N2CCN(CC(O)c3ccc(Cl)c(Cl)c3)CC2)c1Cl` (configuration not stated): the Increase was found to be 3%.

In turn, `CC(=O)Nc1ccc(C(O)CN2CCN(c3ccc(O)nn3)CC2)cc1Cl` (configuration not stated) came in with an Increase of 23%.

In turn, `Nc1c(Cl)cc(C(O)CN2CCN(c3cnnc(O)c3Cl)CC2)cc1Cl` (configuration not stated) displayed an Increase of 19%.

Another test is filed under the species Cavia porcellus. Kind of test: Tested in vitro for its effect on tracheal relaxation in guinea pig trachea, activity expressed as pD2 (-log of molar concentration which gives a half maximal relaxing effect). Format: functional.
As to `Oc1ccc(N2CCN(CC(O)c3ccc(Cl)c(Cl)c3)CC2)nn1` (configuration not stated), the pD2 was determined as 4.79.

As for `Cn1c(=O)c2nc[nH]c2n(C)c1=O.O` [THEOPHYLLINE], the pD2 is 4.
